According to patent publication US9234006B2, “Compounds” (Novacta Biosystems Limited, priority 2011, dated 2016):
*1 amine or outer side, *2 acyl side, *3 side chain or, on linkers, in order; H or OH if unused. Where a SMILES comes first, the peptide text is derived from it. Bridges are numbered along the chain shown (N, C = ends). [ ]: non-standard residue; d: D form. The star is where a group is joined. ξ: configuration not given here. Achc(trans-4) = O=C([C@H]1CC[C@H](N[*:1])CC1)[*:2]; GABA(4S-Me) = C[C@@H](CCC(=O)[*:2])N[*:1]; Octanoyl(3-OH) = CCCCCC(O)CC(=O)*; NMeGABA = CN(CCCC(=O)[*:2])[*:1]; X8 = O=C([C@H]1CC[C@H](O)CC1)*; Thr(3ξ) = CC(O)[C@H](N)C(=O)O; X10 = O=C(CC[C@@H]1CCCN1)*; ξAoc(2) = CCCCCCC(N)C(=O)O; NH(2-ClPh) = Clc1ccccc1N*; Dab = NCC[C@H](N)C(=O)O; X12 = O=C(CCCN1CCOCC1)*; X11 = CC(C)(N)CCC(=O)*; X7 = NC1CCC(C(=O)*)CC1; X1 = CCCCCCC(O)C(=O)*; CO = O=C([*:1])[*:2]; Glycolyl = O=C(CO)*; GABA = NCCCC(=O)O; X9 = O=C(CCCCCO)*

Columns and labels:
Assay in all cases: MIC susceptibility testing, broth microdilution in CaMHB
[1] = tested on: E. coli ATCC25922; format: cell-based, Escherichia coli; settings: Table 4A, different batches of cation-adjusted Muller-Hinton broth
Procedure: (§1) To evaluate the potency and spectrum of the compounds, susceptibility testing was performed against four strains of each of the four Gram negative pathogens, Escherichia coli, Pseudomonas aeruginosa, Klebsiella pneumoniae and Acinetobacter baumannii.
(§2) The day before testing, 3 to 4 colonies were picked from fresh Mueller-Hinton Agar (MHA) plate and transferred into 10 mL of Cation adjusted MHB (CaMHB). Cultures were incubated at 37° C. 250 rpm for 18-20 hours before being diluted 100-fold in fresh CaMHB. The subcultures were grown further until the OD600 reached 0.2-0.3 corresponding to […]. The actively growing cultures were diluted 100-fold in fresh medium and used for the inoculum.
(§3) The assays were performed in duplicate.
(§4) Data was obtained under similar conditions to Table 4 except that different batches of cation-adjusted Muller-Hinton broth were used. The MIC values for these compounds are compared with those values obtained for Polymyxin B, Colistin Sulphate, CB-182,804 and NAB739 (as the TFA salt). CB-182,804 is a polymyxin decapeptide derivative with an aryl urea substituent at the N-terminus, which has been claimed to have lower toxicity than Polymyxin B (compound 5 in WO 2010/075416. See page 37). NAB739 has been described previously by Vaara et al.

[2] = tested on: P. aeruginosa ATCC27853; format: cell-based, Pseudomonas aeruginosa; settings: Table 4A, different batches of cation-adjusted Muller-Hinton broth
Procedure: as §1, §2, §3, §4

[3] = tested on: A. baumannii ATCC19606; format: cell-based, Acinetobacter baumannii; settings: Table 4A, different batches of cation-adjusted Muller-Hinton broth
Procedure: as §1, §2, §3, §4

[4] = tested on: K. pneumoniae ATCC 4352; format: cell-based, Klebsiella pneumoniae; settings: K. pneumoniae ATCC4352; Table 4A, different batches of cation-adjusted Muller-Hinton broth
Procedure: as §1, §2, §3, §4

SMILES | MIC [1] | MIC [2] | MIC [3] | MIC [4]
CC(C)C[C@@H]1NC(=O)[C@@H](Cc2ccccc2)NC(=O)[C@H](CCN)NC(=O)[C@@H](NC(=O)[C@H](CCN)NC(=O)[C@@H](NC(=O)[C@H](CCN)NC(=O)Nc2ccccc2Cl)[C@@H](C)O)CCNC(=O)[C@H]([C@@H](C)O)NC(=O)[C@H](CCN)NC(=O)[C@H](CCN)NC1=O [CB-182,804, reference compound] ({NH(2-ClPh)-CO}-[Dab]T[Dab][Dab][Dab][dF]L[Dab][Dab]T; lactam 4-C; N-terminus assumed) | 2 micrograms/mL | 1 micrograms/mL | 0.5 micrograms/mL | –
CC(C)C[C@@H]1NC(=O)[C@@H](Cc2ccccc2)NC(=O)[C@H](CCN)NC(=O)[C@@H](NC(=O)[C@H](CCN)NC(=O)[C@@H](NC(=O)CO)C(C)O)CCNC(=O)[C@H](C(C)O)NC(=O)[C@H](CCN)NC(=O)[C@H](CCN)NC1=O (stereo partly shown) [Example 16, Hydroxyacetyl polymyxin B nonapeptide] (Glycolyl-[Thr(3ξ)][Dab][Dab][Dab][dF]L[Dab][Dab][Thr(3ξ)]; lactam 3-C) | 32 micrograms/mL | 0.25 micrograms/mL | 32 micrograms/mL | 8 micrograms/mL
CCCCCC(O)CC(=O)N[C@H](C(=O)N[C@@H](CCN)C(=O)N[C@H]1CCNC(=O)[C@H](C(C)O)NC(=O)[C@H](CCN)NC(=O)[C@H](CCN)NC(=O)[C@H](CC(C)C)NC(=O)[C@@H](Cc2ccccc2)NC(=O)[C@H](CCN)NC1=O)C(C)O (stereo partly drawn) [Example 17, 3-(R,S)-3-Hydroxyoctanoyl polymyxin B nonapeptide] ({Octanoyl(3-OH)}-[Thr(3ξ)][Dab][Dab][Dab][dF]L[Dab][Dab][Thr(3ξ)]; lactam 3-C) | 8 micrograms/mL | 2 micrograms/mL | 4 micrograms/mL | 8 micrograms/mL
CC(C)C[C@@H]1NC(=O)[C@@H](Cc2ccccc2)NC(=O)[C@H](CCN)NC(=O)[C@@H](NC(=O)[C@H](CCN)NC(=O)[C@@H](NC(=O)CCCN2CCOCC2)C(C)O)CCNC(=O)[C@H](C(C)O)NC(=O)[C@H](CCN)NC(=O)[C@H](CCN)NC1=O (stereo partly shown) [Example 20, 4-Morpholinylbutanoyl polymyxin B nonapeptide] (X12-[Thr(3ξ)][Dab][Dab][Dab][dF]L[Dab][Dab][Thr(3ξ)]; lactam 3-C) | 4 micrograms/mL | 1 micrograms/mL | >32 micrograms/mL | >32 micrograms/mL
CC(C)C[C@@H]1NC(=O)[C@@H](Cc2ccccc2)NC(=O)[C@H](CCN)NC(=O)[C@@H](NC(=O)[C@H](CCN)NC(=O)[C@@H](NC(=O)CCCCCO)C(C)O)CCNC(=O)[C@H](C(C)O)NC(=O)[C@H](CCN)NC(=O)[C@H](CCN)NC1=O (stereo partly shown) [Example 21, 6-Hydroxyhexanoyl polymyxin B nonapeptide] (X9-[Thr(3ξ)][Dab][Dab][Dab][dF]L[Dab][Dab][Thr(3ξ)]; lactam 3-C) | 32 micrograms/mL | 1 micrograms/mL | >32 micrograms/mL | 32 micrograms/mL
CNCCCC(=O)N[C@H](C(=O)N[C@@H](CCN)C(=O)N[C@H]1CCNC(=O)[C@H](C(C)O)NC(=O)[C@H](CCN)NC(=O)[C@H](CCN)NC(=O)[C@H](CC(C)C)NC(=O)[C@@H](Cc2ccccc2)NC(=O)[C@H](CCN)NC1=O)C(C)O (stereo partly shown) [Example 23, 4-(N-methylamino)-butanoyl polymyxin B nonapeptide] (NMeGABA-[Thr(3ξ)][Dab][Dab][Dab][dF]L[Dab][Dab][Thr(3ξ)]; lactam 3-C) | 0.5 micrograms/mL | 0.25 micrograms/mL | 8 micrograms/mL | 0.5 micrograms/mL
CC(C)C[C@@H]1NC(=O)[C@@H](Cc2ccccc2)NC(=O)[C@H](CCN)NC(=O)[C@@H](NC(=O)[C@H](CCN)NC(=O)[C@@H](NC(=O)[C@H]2CC[C@H](N)CC2)C(C)O)CCNC(=O)[C@H](C(C)O)NC(=O)[C@H](CCN)NC(=O)[C@H](CCN)NC1=O (stereo partly drawn) [Example 24, trans-4-aminocyclohexanecarbonyl polymyxin B nonapeptide] ({Achc(trans-4)}-[Thr(3ξ)][Dab][Dab][Dab][dF]L[Dab][Dab][Thr(3ξ)]; lactam 3-C) | 2 micrograms/mL | 0.125 micrograms/mL | 2 micrograms/mL | 0.125 micrograms/mL
CC(C)C[C@@H]1NC(=O)[C@@H](CC(C)C)NC(=O)[C@H](CCN)NC(=O)[C@@H](NC(=O)[C@H](CCN)NC(=O)[C@@H](NC(=O)CCCN)C(C)O)CCNC(=O)[C@H](C(C)O)NC(=O)[C@H](CCN)NC(=O)[C@H](CCN)NC1=O (stereo partly drawn) [Example 25, 4-aminobutanoyl polymyxin E nonapeptide] (H-[GABA][Thr(3ξ)][Dab][Dab][Dab][dL]L[Dab][Dab][Thr(3ξ)]; lactam 4-C) | 8 micrograms/mL | 4 micrograms/mL | 16 micrograms/mL | 4 micrograms/mL
CCCCCCC(O)C(=O)N[C@H](C(=O)N[C@@H](CCN)C(=O)N[C@H]1CCNC(=O)[C@H](C(C)O)NC(=O)[C@H](CCN)NC(=O)[C@H](CCN)NC(=O)[C@H](CC(C)C)NC(=O)[C@@H](CC(C)C)NC(=O)[C@H](CCN)NC1=O)C(C)O (stereo partly drawn) [Example 26, 2-(R,S)-2-Hydroxyoctanoyl polymyxin E nonapeptide] (X1-[Thr(3ξ)][Dab][Dab][Dab][dL]L[Dab][Dab][Thr(3ξ)]; lactam 3-C) | 8 micrograms/mL | 4 micrograms/mL | 16 micrograms/mL | 8 micrograms/mL
CC(C)C[C@@H]1NC(=O)[C@@H](Cc2ccccc2)NC(=O)[C@H](CCN)NC(=O)[C@@H](NC(=O)[C@H](CCN)NC(=O)[C@@H](NC(=O)C2CCC(N)CC2)C(C)O)CCNC(=O)[C@H](C(C)O)NC(=O)[C@H](CCN)NC(=O)[C@H](CCN)NC1=O (stereo partly drawn) [Example 27, cis-4-aminocyclohexane carbonyl polymyxin B nonapeptide] (X7-[Thr(3ξ)][Dab][Dab][Dab][dF]L[Dab][Dab][Thr(3ξ)]; lactam 3-C) | 2 micrograms/mL | 0.125 micrograms/mL | 0.5 micrograms/mL | 0.125 micrograms/mL
CC(C)C[C@@H]1NC(=O)[C@@H](Cc2ccccc2)NC(=O)[C@H](CCN)NC(=O)[C@@H](NC(=O)[C@H](CCN)NC(=O)[C@@H](NC(=O)CCC(C)(C)N)C(C)O)CCNC(=O)[C@H](C(C)O)NC(=O)[C@H](CCN)NC(=O)[C@H](CCN)NC1=O (stereo partly shown) [Example 28, 4-Amino-4-methyl pentanoyl polymyxin B nonapeptide] (X11-[Thr(3ξ)][Dab][Dab][Dab][dF]L[Dab][Dab][Thr(3ξ)]; lactam 3-C) | 4 micrograms/mL | <0.06 micrograms/mL | 4 micrograms/mL | 0.25 micrograms/mL
CC(C)C[C@@H]1NC(=O)[C@@H](Cc2ccccc2)NC(=O)[C@H](CCN)NC(=O)[C@@H](NC(=O)[C@H](CCN)NC(=O)[C@@H](NC(=O)CC[C@@H]2CCCN2)C(C)O)CCNC(=O)[C@H](C(C)O)NC(=O)[C@H](CCN)NC(=O)[C@H](CCN)NC1=O (stereo partly drawn) [Example 30, 3-(S)-(1-pyrrolidin-2-yl)-propionyl polymyxin B nonapeptide] (X10-[Thr(3ξ)][Dab][Dab][Dab][dF]L[Dab][Dab][Thr(3ξ)]; lactam 3-C) | 16 micrograms/mL | 0.125 micrograms/mL | 8 micrograms/mL | 1 micrograms/mL
CC(C)C[C@@H]1NC(=O)[C@@H](Cc2ccccc2)NC(=O)[C@H](CCN)NC(=O)[C@@H](NC(=O)[C@H](CCN)NC(=O)[C@@H](NC(=O)CC[C@H](C)N)C(C)O)CCNC(=O)[C@H](C(C)O)NC(=O)[C@H](CCN)NC(=O)[C@H](CCN)NC1=O (stereo partly drawn) [Example 31, 4-(S)-aminopentanoyl polymyxin B nonapeptide] ({GABA(4S-Me)}-[Thr(3ξ)][Dab][Dab][Dab][dF]L[Dab][Dab][Thr(3ξ)]; lactam 3-C) | >32 micrograms/mL | 0.25 micrograms/mL | 8 micrograms/mL | 0.5 micrograms/mL
CC(C)C[C@@H]1NC(=O)[C@@H](Cc2ccccc2)NC(=O)[C@H](CCN)NC(=O)[C@@H](NC(=O)[C@H](CCN)NC(=O)[C@@H](NC(=O)[C@H]2CC[C@H](O)CC2)C(C)O)CCNC(=O)[C@H](C(C)O)NC(=O)[C@H](CCN)NC(=O)[C@H](CCN)NC1=O (stereo partly drawn) [Example 32, trans-4-hydroxycyclohexanecarbonyl polymyxin B nonapeptide] (X8-[Thr(3ξ)][Dab][Dab][Dab][dF]L[Dab][Dab][Thr(3ξ)]; lactam 3-C) | 8 micrograms/mL | 0.125 micrograms/mL | 16 micrograms/mL | 4 micrograms/mL
CCCCCCC(N)C(=O)N[C@H](C(=O)N[C@@H](CCN)C(=O)N[C@H]1CCNC(=O)[C@H](C(C)O)NC(=O)[C@H](CCN)NC(=O)[C@H](CCN)NC(=O)[C@H](CC(C)C)NC(=O)[C@@H](Cc2ccccc2)NC(=O)[C@H](CCN)NC1=O)C(C)O (stereo partly drawn) [Example 35, 2-(R,S)-2-Amino octanoyl polymyxin B nonapeptide] (H-[ξAoc(2)][Thr(3ξ)][Dab][Dab][Dab][dF]L[Dab][Dab][Thr(3ξ)]; lactam 4-C) | – | 0.25 micrograms/mL | 2 micrograms/mL | 1 micrograms/mL
